Measured values as given in patent US20170216252A1, “ANTI-BACTERIAL PYRUVATE KINASE MODULATOR COMPOUNDS, COMPOSITIONS, USES AND METHODS” (SIMON FRASER UNIVERSITY, priority 2014, published 2017).
Where two headings read alike, the source gives them in different places.

How the values were obtained:
Experiment in all cases: Human PK selectivity, LDH-coupled enzyme assay
Assay type in all cases: biochemical
[1] = molecular target: T1, Human L PK (Homo sapiens, UniProt P30613); conditions: read-out: % Inhibition Human L
T1 construct: His tag; made in house; host or cells: E. coli BL-21 (DE3); construct a gift of Dr. L. Cantley
Text: (§1) Genomic DNA of MRSA strain Sanger 252 extracted using DNeasy Tissue Kit™ (Qiagen™) was used as a template to generate the His-tagged MRSA PK. Human cDNA from MCF-7 breast cancer cell line (courtesy of Dr. J Wong, BC Cancer Research Center (Vancouver, Canada) was used as a template to generate the full-length human M2 PK enzyme. The following primer sets were used creating appropriate restriction sites (NdeI and XhoI sites underlined): For cloning of MRSA PK: M27F 5′-[…]-3′ and M27R 5′-[…]-3′, for cloning of human M2 PK isoform: hM2F 5′-[…]-3′ and hM2R 5′-[…]-3′. The resulting PCR fragments for each construct were cloned into the NdeI and XhoI unique sites of the bacterial expression vector pET-28a (+) (Novagen™). […] The sequence and the correct reading frame of all constructs were verified by sequencing. Human M1, R and L PK constructs in pET-28-a(+) vectors (courtesy of Dr. L. Cantley, Harvard Medical, School (Boston, USA)) were used to generate relevant recombinant His-tagged human PK isoforms.
(§2) MRSA and human constructs in pET-28a(+) were used to express relevant recombinant PK proteins in E. coli BL-21 (DE3). The proteins were expressed and purified using Ni-NTA agarose (Qiagen™) according to the manufacturer's protocol. Briefly, cells were grown to an absorbance of 0.4-0.5 at 600 nm in 2×YT medium, then induced with 0.1 mM IPTG for 3 h at 20° C. Cells were lysed by sonication on ice (3×10-s bursts with a 30-s recovery between bursts) in lysis buffer (0.2 mg/ml lysozyme, 50 mM Tris pH 7.5, 10 mM MgCl2, 200 mM NaCl, 100 mM KCl, 10% glycerol, 10 mM imidazole, 0.5% NP-40 and 1 mM DTT containing Complete™ protease inhibitor). Cell lysates were cleared by centrifugation (18,000×g in a Beckman™ JA-20 rotor) for 20 min at 4° C. and PK isoforms were purified by batch binding to Ni-NTA resin. The resins were then packed in columns (1×2 cm) and washed with 400 column volumes lysis buffer containing 30 mM imidazole. His-tagged PK isoforms were eluted with the same buffer containing 300 mM imidazole. The proteins were dialyzed overnight at 4° C. against 2000 volumes of ice-cold 30 mM Tris pH 7.5, 25 mM KCl, 5 mM MgCl2, 10% glycerol and 1 mM DTT to remove imidazole. All purification steps were done at 4° C.; enzymes were flash-frozen and stored at −70° C. Enzymatic activity of frozen protein preparations was stable for at least 10 months and up to 5 freeze/thaw cycles. Purity and physical integrity of proteins were assessed using SDS-polyacrylamide gel electrophoresis (SDS-PAGE) followed by coomassie blue staining. Protein concentration was estimated by Bradford assay (Bio-Rad Protein Assay™) using bovine serum albumin as a standard.
(§3) Candidate MRSA PK inhibitors were assayed for their ability to inhibit enzymatic activities of MRSA and human PKs. PK activity was determined using a continuous assay coupled to lactate dehydrogenase (LDH) in which the change in absorbance at 340 nm owing to oxidation of NADH was measured using a Benchmark Plus™ microplate spectrophotometer (Bio-Rad Laboratories, Hercules, Calif.). […] Reactions were initiated by the addition of 15 nM of one of the PK enzymes. PK activity proportional to the rate of change at 340 nm was expressed as specific activity (μmol/min/mg), which is defined as the amount of PK that catalyzes the formation of one micromole of either product per minute. Inhibitors were dissolved in DMSO with the final concentration of the solvent never exceeding 1% of the assay volume. IC50 values were calculated by curve fitting on a four-parameter dose-response model with variable slope using Graphpad Prism 5.0™ (GraphPad™ Software Inc., La Jolla, Calif.). In all studies, less than 10% of total PEP was exhausted during the reaction. Reactions were performed at 30° C. for up to 5 min. All values determined represent at least two measurements, in triplicate (Tables 1-6) or duplicate unless mentioned otherwise. […]

[2] = molecular target: T2, Human M1 PK (Homo sapiens, UniProt P14618); conditions: read-out: % Inhibition Human M1
T2 construct: His tag; made in house; host or cells: E. coli BL-21 (DE3); construct a gift of Dr. L. Cantley
Text: as §1, §2, §3

[3] = molecular target: T3, Human M2 PK (Homo sapiens, UniProt P14618); conditions: read-out: % Inhibition Human M2
T3 construct: used as a template to generate the full-length human M2 PK enzyme; His tag (pET-28a(+) vector) (N); made in house; host or cells: E. coli BL-21 (DE3)
Text: as §1, §2, §3

[4] = molecular target: T4, Human R PK (Homo sapiens, UniProt P30613); conditions: read-out: % Inhibition Human R
T4 construct: His tag; made in house; host or cells: E. coli BL-21 (DE3); construct a gift of Dr. L. Cantley
Text: as §1, §2, §3

T2 sequence (P14618 1-531 isoform P14618-2): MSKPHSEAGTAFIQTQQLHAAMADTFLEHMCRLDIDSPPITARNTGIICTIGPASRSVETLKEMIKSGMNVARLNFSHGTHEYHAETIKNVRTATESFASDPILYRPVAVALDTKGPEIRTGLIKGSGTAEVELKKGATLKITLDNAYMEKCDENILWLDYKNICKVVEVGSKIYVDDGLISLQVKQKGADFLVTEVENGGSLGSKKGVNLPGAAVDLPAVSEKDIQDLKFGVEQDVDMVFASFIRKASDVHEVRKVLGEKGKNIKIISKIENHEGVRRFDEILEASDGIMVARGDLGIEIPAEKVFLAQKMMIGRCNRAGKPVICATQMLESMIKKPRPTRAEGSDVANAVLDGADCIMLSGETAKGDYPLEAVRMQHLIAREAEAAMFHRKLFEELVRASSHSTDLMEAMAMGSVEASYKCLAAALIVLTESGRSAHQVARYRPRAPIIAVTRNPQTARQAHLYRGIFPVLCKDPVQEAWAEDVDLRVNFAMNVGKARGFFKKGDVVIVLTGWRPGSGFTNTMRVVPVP
T4 sequence (P30613 whole entry): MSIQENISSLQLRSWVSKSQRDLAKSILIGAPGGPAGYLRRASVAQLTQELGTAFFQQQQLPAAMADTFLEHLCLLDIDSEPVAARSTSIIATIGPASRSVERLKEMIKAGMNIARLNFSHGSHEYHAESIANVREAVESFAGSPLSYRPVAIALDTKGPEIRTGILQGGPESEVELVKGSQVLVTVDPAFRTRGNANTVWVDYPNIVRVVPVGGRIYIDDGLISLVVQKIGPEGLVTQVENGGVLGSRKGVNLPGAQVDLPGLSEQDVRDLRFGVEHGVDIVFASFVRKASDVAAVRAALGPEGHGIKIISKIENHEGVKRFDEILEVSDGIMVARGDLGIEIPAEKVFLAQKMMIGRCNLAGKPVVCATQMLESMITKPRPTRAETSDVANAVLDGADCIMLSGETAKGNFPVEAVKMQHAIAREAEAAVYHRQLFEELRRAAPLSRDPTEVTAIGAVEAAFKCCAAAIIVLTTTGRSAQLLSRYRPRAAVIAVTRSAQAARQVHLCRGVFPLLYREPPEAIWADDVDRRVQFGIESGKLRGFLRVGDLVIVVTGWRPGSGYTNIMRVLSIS
T3 sequence (P14618 whole entry): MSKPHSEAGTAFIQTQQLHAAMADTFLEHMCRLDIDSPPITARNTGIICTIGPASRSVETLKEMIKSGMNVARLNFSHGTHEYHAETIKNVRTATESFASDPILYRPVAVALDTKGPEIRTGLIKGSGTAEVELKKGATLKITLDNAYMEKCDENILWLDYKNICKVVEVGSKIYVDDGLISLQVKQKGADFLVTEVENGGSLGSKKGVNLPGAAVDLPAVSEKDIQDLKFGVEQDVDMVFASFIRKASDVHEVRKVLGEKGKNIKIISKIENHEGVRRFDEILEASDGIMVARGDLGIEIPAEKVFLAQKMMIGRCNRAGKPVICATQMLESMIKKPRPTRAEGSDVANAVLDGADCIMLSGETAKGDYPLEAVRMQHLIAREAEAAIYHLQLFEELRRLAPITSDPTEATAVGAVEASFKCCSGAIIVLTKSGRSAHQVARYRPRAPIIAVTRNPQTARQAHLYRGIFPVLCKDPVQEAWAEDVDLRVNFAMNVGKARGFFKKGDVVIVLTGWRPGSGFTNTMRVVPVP
T1 sequence (P30613 1-543 isoform P30613-2): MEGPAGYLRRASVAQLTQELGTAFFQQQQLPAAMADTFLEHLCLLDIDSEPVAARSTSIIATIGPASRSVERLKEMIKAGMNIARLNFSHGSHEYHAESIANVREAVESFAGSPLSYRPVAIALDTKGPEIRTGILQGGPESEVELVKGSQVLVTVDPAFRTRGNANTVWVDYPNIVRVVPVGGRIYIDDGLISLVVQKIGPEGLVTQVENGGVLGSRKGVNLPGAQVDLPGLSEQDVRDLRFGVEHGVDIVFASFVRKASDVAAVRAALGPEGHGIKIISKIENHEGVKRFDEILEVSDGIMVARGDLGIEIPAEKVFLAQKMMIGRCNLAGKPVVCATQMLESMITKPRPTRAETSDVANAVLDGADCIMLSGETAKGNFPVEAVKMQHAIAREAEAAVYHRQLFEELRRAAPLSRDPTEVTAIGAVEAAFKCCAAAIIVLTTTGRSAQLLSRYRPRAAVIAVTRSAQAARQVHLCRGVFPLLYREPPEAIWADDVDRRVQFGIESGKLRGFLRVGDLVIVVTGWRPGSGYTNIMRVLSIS

SMILES | inhibition at 10 µM ([1]; at 10 μM) [%] | inhibition at 10 µM ([2]; at 10 μM) [%] | inhibition at 10 µM ([3]; at 10 μM) [%] | inhibition at 10 µM ([4]; at 10 μM) [%] | inhibition at 10 µM [1] [%] | inhibition at 10 µM [2] [%] | inhibition at 10 µM [3] [%] | inhibition at 10 µM [4] [%]
Brc1ccc2cc(CCc3cc4ccc(Br)cc4[nH]3)[nH]c2c1 [Compound 28a, 1,2-bis(6-bromo-1H-indol-2-yl)ethane] | 9.7 | 9.9 | 1.3 | 24.1 |  |  |  | 
Brc1ccc2[nH]c(C#Cc3cc4ccc(Br)cc4[nH]3)cc2c1 [Compound 25c, 6-Bromo-2-((5-bromo-1H-indol-2-yl)ethynyl)-1H-indole] | 14 | 19.5 | 8.7 | 27.8 |  |  |  | 
CN1CCN(CCn2c(-c3cc4ccc(Br)cc4[nH]3)cc3cc(Br)ccc32)CC1 [Compound 20a, 5,6′-Dibromo-1-(2-(4-methylpiperazin-1-yl)ethyl)-1H,1′H-2,2′-biindole] | 16.8 | 3.2 | 1.7 | 26.1 |  |  |  | 
Brc1ccc2[nH]c(-c3cc4ccc(Br)cc4[nH]3)cc2c1 [Compound 10c, 5,6-Bibromo-1H,1′H-2,2′-biiindole] | 6.1 | 6.9 | 8.7 | 13.6 |  |  |  | 
Brc1ccc2cc(-c3cc4cc(Br)c(Br)cc4[nH]3)[nH]c2c1 [Compound 10k, 5,6,6′-Tribromo-1H,1′H-2,2′-biindole] | 26.8 | 16.1 | 20.8 | 41 |  |  |  | 
COc1cc(-c2cc3ccccc3[nH]2)ccc1-c1cc2ccc(Br)cc2[nH]1 [Compound 33e, 2-(4-(1H-indol-2-yl)-2-methoxyphenyl)-6-bromo-1H-indole] | 4.3 | 7.3 | 14.6 | 13.5 |  |  |  | 
Brc1ccc2cc(/C=C/c3cc4ccccc4[nH]3)[nH]c2c1 [Compound 27a, (E)-2-(2-(1H-indol-2-yl)vinyl)-6-bromo-1H-indole] | 12.9 | 16.1 | -0.9 | 23.8 |  |  |  | 
Cn1c(-c2cc3ccc(Br)cc3[nH]2)cc2cc(Br)ccc21 [Compound 12a, 5,6′-Dibromo-1-methyl-1H,1′H-2,2′-biindole] | 2.8 | 13.9 | 9.1 | 2.7 |  |  |  | 
Brc1cc2cc(-c3cc4cc(Br)c(Br)cc4[nH]3)[nH]c2cc1Br [Compound 10l, 5,5′,6,6′-Tetrabromo-1H,1′H-2,2′-biindole] |  |  |  |  | 8.2 | 11.1 | 2.3 | 20.7
Brc1ccc2cc(-c3cc4ccc(Br)cc4[nH]3)[nH]c2c1 [Compound 10b, 6,6′-Dibromo-1H,1′H-2,2′-biindole] | 7.9 | 10.3 | 0.1 | 18.3 |  |  |  | 
Brc1ccc2[nH]c(-c3cc4cc(Br)ccc4[nH]3)cc2c1 [Compound 10i, 5,5′-Bibromo-1H,1′H-2,2′-biindole] | 9.8 | 12.3 | 0.5 | 24.4 |  |  |  | 
Brc1ccc2cc(-c3nc4ccccc4s3)[nH]c2c1 [Compound 22a, 2-(6-Bromo-1H-indol-2-yl)benzo[d]thiazole] | 7.8 | 12.4 | 3 | 21.6 |  |  |  | 
Brc1ccc2cc(-c3cc4ccccc4o3)[nH]c2c1 [Compound 22b, 2-(Benzofuran-2-yl)-6-bromo-1H-indole] | -6 | 5.3 | 0.4 | -5.5 |  |  |  | 
OCCn1c(-c2cc3ccc(Br)cc3[nH]2)cc2cc(Br)ccc21 [Compound 17, 2-(5,6′-Dibromo-1H, 1′H-[2,2′-biindol]-1-yl)ethanol] | 6.8 | 14.6 | 12.1 | 25.2 |  |  |  | 
Brc1ccc2c(c1)cc(-c1cc3ccc(Br)cc3[nH]1)n2CCN1CCOCC1 [Compound 20b, 4-(2-(5,6′-dibromo-1H,1′H-[2,2′-biindol]-1-yl)ethyl)morpholine] | 32.1 | 13.1 | 3.5 | 50.7 |  |  |  | 
